What was measured:
endometrium [1] = test: Endometrial histology (biopsy taken by curettage), clinical phase I-II study; format: in vivo, healthy postmenopausal female volunteers; conditions: 30, 60, 90 mg daily, 3 months
Protocol: (§1) A clinical phase I-II study was carried out to study the effects of ospemifene on endometrial thickness, endometrial pathology, (biopsy taken by curettage as described by Vuopala et al, 1982) and cervical smear in healthy postmenopausal female volunteers in the age range 55 to 69 years. Tolerability and pharmacokinetics were also assessed. Raloxifene (60 mg daily) was used as reference. Ospemifene was given perorally at the doses of 30, 60 and 90 mg daily. […] Ospemifene was administered in gelatine capsules containing either 30, 60 or 90 mg of ospemifene.
(§2) This effect is clearly weaker than that seen with estrogen replacement therapy. […] The measured values were always smaller than 8 mm, which is considered to be a thickness which is indicative for a physiologically significant estrogenicity of SERMs like tamoxifen (Hann et al, 1997; Lahti et al, 1993).

vaginal epithelium = test: Cervical smear: maturity index / karyopyknosis index of the vaginal epithelium, clinical phase I-II study; conditions: for Change in maturity index for superficial cells (MI3 mean) / Change in maturity index for parabasal cells (MI1 mean): after 3 months; for Change in maturity index for superficial cells (MI3 mean): index 100 full estrogen, index 0 no estrogenicity; for Change in maturity index for parabasal cells (MI1 mean): index 100 no estrogenicity, index 0 full estrogen; for increase in the karyopyknosis index for superficial cells: 12 weeks; for change from baseline to post-treatment in the karyopyknosis index for superficial cells: individuals, start to 12 weeks, ospemifene 30, 60, 90 mg daily, raloxifene 60 mg daily, result in words
Protocol: Tolerability and pharmacokinetics were also assessed. Raloxifene (60 mg daily) was used as reference. Ospemifene was given perorally at the doses of 30, 60 and 90 mg daily. There were 29 volunteers at each dose level, as well as in the raloxifene group. Ospemifene was administered in gelatine capsules containing either 30, 60 or 90 mg of ospemifene. […] The vaginal epithelium was assessed by karyopyknosis index which is a well known assessment method among the skilled persons. In this method, the vaginal fraction of the cervical smears is estimated as the percentage of the number of cells from different layers: the parabasal cell layer; the intermediate cell layer; and the superficial cell layer. Estrogenicity is seen by a shift towards superficial cell fraction. In postmenopausal women this fraction usually is close to zero and estradiol treatment increases the fraction close to 100. Samples were taken before and after the treatment (at 3 months).
Table 1. […] (MI 1: index 100 no estrogenicity; index 0 full estrogen, and MI 3: index 100 full estrogen; index 0 no estrogenicity).

endometrium [2] = test: Thickness of the endometrium by ultrasonography, clinical phase I-II study; format: in vivo, healthy postmenopausal female volunteers; conditions: for increase in the thickness of the endometrium (average): 3 months, statistically not significant
Protocol: as §1, §2

[3] = Tolerability in the clinical studies; format: in vivo, posmenopausal women
Protocol: as §1
Based on the present data, the optimal clinical dose is expected to be higher than 25 mg daily and lower than 100 mg daily. A particularly preferable daily dose is found in the range 30 to 90 mg. […] In addition, ospemifene decreases total and LDL cholesterol, increases HDL cholesterol, and prevents osteoporosis and early stage breast cancer.

Protocol for urogenital atrophy: In this study, raloxifene (60 mg/day) or ospemifene at different doses were given to elderly female volunteers for a period of 3 months.
77 were treated with 25-30 mg, 78 with 50-60 mg, 78 with 90-100 mg and 8 with 200 mg daily dose of ospemifene. In the control groups, 47 were treated with placebo and 29 with raloxifene. […] The symptoms include both vaginal and urinary symptoms such as vaginal discomfort with irritation, itching, burning, smarting, postcoital bleeding, vulvar itching and/or malodorous discharge and leukorrhea.

OCCOc1ccc(/C(=C(/CCCl)c2ccccc2)c2ccccc2)cc1 [Ospemifene, (deaminohydroxy)toremifene]
vaginal atrophy (urogenital atrophy; 30, 60 and 90 mg daily, 3 months, elderly female volunteers): significant decrease in vaginal atrophy
symptoms associated with urogenital atrophy (vaginal and urinary) (urogenital atrophy; spontaneous reports of some subjects, 25-200 mg daily, 241 women treated): alleviation of the symptoms associated with urogenital atrophy
malignant findings in the endometrium (endometrium [1]): no malignant findings
estrogenic effect on endometrial histology (endometrium [1]; clearly weaker than with estrogen replacement therapy): weak estrogenic effect
Change in maturity index for superficial cells (MI3 mean) (vaginal epithelium; 30 mg daily perorally): +12.4
Change in maturity index for parabasal cells (MI1 mean) (vaginal epithelium; 30 mg daily perorally): -40
Change in maturity index for superficial cells (MI3 mean) (vaginal epithelium; 60 mg daily perorally): +5.5
Change in maturity index for parabasal cells (MI1 mean) (vaginal epithelium; 60 mg daily perorally): -26
Change in maturity index for superficial cells (MI3 mean) (vaginal epithelium; 90 mg daily perorally): +12.5
Change in maturity index for parabasal cells (MI1 mean) (vaginal epithelium; 90 mg daily perorally): -48
estrogenic effect in the cervical smear (vaginal epithelium; 30, 60, 90 mg daily, 3 months): weak but statistically significant estrogenic effect
pathological changes in cervical smear samples (vaginal epithelium; 30, 60, 90 mg daily, 3 months): No pathological changes
increase in the karyopyknosis index for superficial cells (vaginal epithelium; individual cases, all ospemifene groups (30, 60, 90 mg daily), all cases except one): < 40
change from baseline to post-treatment in the karyopyknosis index for superficial cells (vaginal epithelium): slight increases
increase in the karyopyknosis index for superficial cells (vaginal epithelium; one case in the 90 mg group): 45
increase in the thickness of the endometrium (average) (endometrium [2]; 30 mg daily): 0.2 mm
increase in the thickness of the endometrium (average) (endometrium [2]; 60 mg daily): 0.5 mm
increase in the thickness of the endometrium (average) (endometrium [2]; 90 mg daily): 0.5 mm
thickness of the endometrium, measured values (endometrium [2]; all measured values, 30, 60, 90 mg daily): smaller than 8 mm
tolerability [3]: excellent tolerability

O=C(c1ccc(OCCN2CCCCC2)cc1)c1c(-c2ccc(O)cc2)sc2cc(O)ccc12 [Raloxifene, reference compound]
Change in maturity index for superficial cells (MI3 mean) (vaginal epithelium; 60 mg daily perorally): -0.3
Change in maturity index for parabasal cells (MI1 mean) (vaginal epithelium; 60 mg daily perorally): -2
change from baseline to post-treatment in the karyopyknosis index for superficial cells (vaginal epithelium): no one in the raloxifene group (Fig. 1D) had a significant change

Reference: EP1509215B1, “TREATMENT OR PREVENTION OF UROGENITAL ATROPHY AND ITS SYMPTOMS IN WOMEN” (Hormos Medical Ltd., priority 2002, dated 2003)
